Data on five compounds can be found in ChEMBL document CHEMBL1201862, “PubChem BioAssay data set” (2004).

The structures appear in SMILES notation.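 Compound exposure: 48 hours, 5 concentrations, 96-well plates. GI50 marks 50% less growth.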 Activity calls are given as the source filed them. Cut-off read from the data, not from the text of the source: active = GI50 up to about 1.1 µM and inactive = higher.

Some test systems named below: 786-0; A498; CAKI-1; CCRF-CEM; COLO 205; HCT-15; KM12; Malme-3M; NCI-H23; OVCAR-3; RXF 393; SF-268; SF-295; SW-620; U-251; UO-31; HL-60.
What all share (experiment): NCI tumour cell line growth inhibition, 48 h

`Nn1c(S)nnc1NNC(=O)C(=O)Nc1cc(Cl)c(Cl)cc1Cl`: the GI50 with 786-0 was > 100 µM (inactive); with A498 it was > 100 µM (inactive); in the experiment with CAKI-1 it was > 100 µM (inactive); in the experiment on CCRF-CEM it was 20 µM (inactive); with COLO 205, > 100 µM (inactive); in the experiment with HCT-15, over 100 µM. Moreover, the GI50 in the experiment on KM12, in the experiment with Malme-3M, in the experiment on NCI-H23, with OVCAR-3, with RXF 393 and in the experiment on SF-268 was > 100 µM (inactive) in each case. Besides, the GI50 in the experiment with SF-295, in the experiment with SW-620, in the experiment with U-251 and in the experiment with UO-31 was > 100 µM (inactive) throughout.

With `CC(C)C1CO[C@]2(C)CCC(=O)N12` (stereo partly specified), the GI50 in the experiment with 786-0 is > 100 µM (inactive); in the experiment with CAKI-1, > 100 µM (inactive); in the experiment with CCRF-CEM, > 100 µM (inactive); in the experiment with COLO 205, > 100 µM (inactive); in the experiment on HCT-15, over 100 µM; in the experiment with HL-60, > 100 µM (inactive). Also, the GI50 with KM12, in the experiment on Malme-3M, with NCI-H23, in the experiment on OVCAR-3, with RXF 393 and in the experiment on SF-268 was > 100 µM (inactive) each time. Also, the GI50 in the experiment with SF-295, in the experiment with SW-620, in the experiment with U-251 and in the experiment on UO-31 was > 100 µM (inactive) in each case.

`Cn1c(=O)c2[nH]cnc2n(CC(N)=O)c1=O`: the GI50 was > 100 µM (inactive) in the experiment on 786-0; > 100 µM (inactive) in the experiment with A498; > 100 µM (inactive) with CAKI-1; > 100 µM (inactive) with CCRF-CEM; > 100 µM (inactive) with COLO 205; over 100 µM in the experiment with HCT-15. Also, the GI50 in the experiment on KM12, with Malme-3M, in the experiment on NCI-H23, in the experiment with OVCAR-3, with SF-268 and with SW-620 was > 100 µM (inactive) in each case. Besides, the GI50 in the experiment on U-251 and in the experiment with UO-31 was > 100 µM (inactive) each time.

Consider `COC(=O)c1ccc(OCc2ccc3oc(=O)c(-c4ccccc4)nc3c2)cc1`, for which the GI50 is 28.9 µM (inactive) in the experiment on 786-0; > 100 µM (inactive) in the experiment on CAKI-1; 23.5 µM (inactive) with CCRF-CEM; 33.9 µM (inactive) in the experiment on COLO 205; over 100 µM in the experiment on HCT-15; 28.4 µM (inactive) with HL-60. For the same compound, the GI50 with KM12 is > 100 µM (inactive); with Malme-3M, 59.2 µM (inactive); in the experiment on NCI-H23, 71.3 µM (inactive); in the experiment on OVCAR-3 it was 44.9 µM (inactive); in the experiment on SF-268 it was > 100 µM (inactive); with SF-295, > 100 µM (inactive). The GI50 in the experiment on SW-620 is 57.3 µM (inactive); with U-251, > 100 µM (inactive); in the experiment on UO-31 it was > 100 µM (inactive).

Take `CCN(CC)CC(C(=O)Nc1c(C)cccc1C)/C(C)=N\NC(=O)C[N+](C)(C)C` (stereo unspecified): the GI50 in the experiment on 786-0 is > 100 µM (inactive); in the experiment with CAKI-1 it was > 100 µM (inactive); in the experiment with COLO 205, > 100 µM (inactive); in the experiment on HCT-15 it was over 100 µM; with HL-60, > 100 µM (inactive); in the experiment on KM12, > 100 µM (inactive). Moreover, the GI50 with Malme-3M, in the experiment on NCI-H23, in the experiment with OVCAR-3, in the experiment with RXF 393, in the experiment with SF-268 and in the experiment on SF-295 was > 100 µM (inactive) throughout. Further, the GI50 in the experiment with SW-620, in the experiment on U-251 and in the experiment with UO-31 was > 100 µM (inactive) throughout.
